According to patent US10265298B2, “Method of increasing the bioavailability of silybin” (Macau University of Science and Technology, priority 2017, dated 2019):

Experiments:
MRP2 = MRP2 (Homo sapiens, UniProt Q92887); test: cell-based; settings: for efflux ratio of CDCFDA in the presence of inhibitor: dog, 180 min
Experimental: (§1) Parental Madin-Darby canine kidney II (MDCKII), multi-drug resistance gene 1-Madin-Darby canine kidney II (MDR1-MDCKII), breast cancer resistance protein-Madin-Darby canine kidney II (BCRP-MDCKII), and multi-drug resistance protein 2-Madin-Darby canine kidney II (MRP2-MDCKII) cells were kindly provided by the Netherlands Cancer Institute (Amsterdam, Netherlands) and frozen at −80° C. The MDCKII cells were cultured at 37° C./5% CO2 in Dulbecco's modified Eagle's medium supplemented with 10% fetal bovine serum, 1% nonessential amino acids, and 2% penicillin-streptomycin. The cells were seeded on transwell inserts (Corning Inc.) at a density of 2.0×10^5 cells/cm^2 and grown for 4-5 days to form confluent monolayers.
(§2) Bidirectional transport assays in human colorectal adenocarcinoma 2 (Caco-2) and Madin-Darby canine kidney II (MDCK II) was carried out by dosing substrates in assay buffer to either the apical chamber (A-to-B) or the basolateral chamber (B-to-A); cells were then incubated at 37° C. with shaking at 50 rotations per minute (rpm), and 100 μl samples were collected at 30, 60, 90, 120 and 180 minutes from the basolateral chamber to study the drug transport of AP to BL, or apical chamber to study the drug transport of BL to AP. Cell monolayers were then washed twice with ice-cold assay buffer and lysed with methanol on ice for 10 minutes. For inhibition studies, Caco-2 or MDCK II cell monolayers were pre-incubated with an inhibitor in both apical and basolateral chambers for 30 minutes, and bidirectional transport of 10 μM silybin was conducted in the absence (control) or presence of the inhibitor in both chambers. […] For fluorescence intensity detection, samples collected from AP or BL side were immediately detected in 96 well black plate by Microplate ultraviolet-visible spectroscopy (UV/VIS) spectrophotometer (TECAN infinite M200 PRO, Männedorf, Switzerland). In all cases, each determination was performed in triplicate.
(§3) The apparent permeability coefficients (Papp) were calculated as Papp=dQ/dt×1/(C“0”A) where dQ/dt (mM/sec) is the rate of permeation of the drug across the cells, C0 (millimolar (mM)) is the donor compartment concentration at time zero and A (cm^2) is the area of the cell monolayer. C0 is obtained from analysis of the dosing solution at the start experiment. Efflux Ratio (ER)=Papp (B to A)/Papp (A to B), while Papp (B−A) is the Papp value measured in the B to A direction, and Papp (A−B) is the Papp value measured in the A to B direction. 1.5 Preparation of Rat Sandwich-Cultured Hepatocytes
(§4) (*, P<0.05;**, P<0.01; ***, P<0.001 vs absence of any inhibitor. n=3).
as §4

MDR1 (P-gp) = MDR1 (P-gp) (Homo sapiens, UniProt P08183); test: cell-based
Chain of MDR1 (P-gp) (P08183 whole entry): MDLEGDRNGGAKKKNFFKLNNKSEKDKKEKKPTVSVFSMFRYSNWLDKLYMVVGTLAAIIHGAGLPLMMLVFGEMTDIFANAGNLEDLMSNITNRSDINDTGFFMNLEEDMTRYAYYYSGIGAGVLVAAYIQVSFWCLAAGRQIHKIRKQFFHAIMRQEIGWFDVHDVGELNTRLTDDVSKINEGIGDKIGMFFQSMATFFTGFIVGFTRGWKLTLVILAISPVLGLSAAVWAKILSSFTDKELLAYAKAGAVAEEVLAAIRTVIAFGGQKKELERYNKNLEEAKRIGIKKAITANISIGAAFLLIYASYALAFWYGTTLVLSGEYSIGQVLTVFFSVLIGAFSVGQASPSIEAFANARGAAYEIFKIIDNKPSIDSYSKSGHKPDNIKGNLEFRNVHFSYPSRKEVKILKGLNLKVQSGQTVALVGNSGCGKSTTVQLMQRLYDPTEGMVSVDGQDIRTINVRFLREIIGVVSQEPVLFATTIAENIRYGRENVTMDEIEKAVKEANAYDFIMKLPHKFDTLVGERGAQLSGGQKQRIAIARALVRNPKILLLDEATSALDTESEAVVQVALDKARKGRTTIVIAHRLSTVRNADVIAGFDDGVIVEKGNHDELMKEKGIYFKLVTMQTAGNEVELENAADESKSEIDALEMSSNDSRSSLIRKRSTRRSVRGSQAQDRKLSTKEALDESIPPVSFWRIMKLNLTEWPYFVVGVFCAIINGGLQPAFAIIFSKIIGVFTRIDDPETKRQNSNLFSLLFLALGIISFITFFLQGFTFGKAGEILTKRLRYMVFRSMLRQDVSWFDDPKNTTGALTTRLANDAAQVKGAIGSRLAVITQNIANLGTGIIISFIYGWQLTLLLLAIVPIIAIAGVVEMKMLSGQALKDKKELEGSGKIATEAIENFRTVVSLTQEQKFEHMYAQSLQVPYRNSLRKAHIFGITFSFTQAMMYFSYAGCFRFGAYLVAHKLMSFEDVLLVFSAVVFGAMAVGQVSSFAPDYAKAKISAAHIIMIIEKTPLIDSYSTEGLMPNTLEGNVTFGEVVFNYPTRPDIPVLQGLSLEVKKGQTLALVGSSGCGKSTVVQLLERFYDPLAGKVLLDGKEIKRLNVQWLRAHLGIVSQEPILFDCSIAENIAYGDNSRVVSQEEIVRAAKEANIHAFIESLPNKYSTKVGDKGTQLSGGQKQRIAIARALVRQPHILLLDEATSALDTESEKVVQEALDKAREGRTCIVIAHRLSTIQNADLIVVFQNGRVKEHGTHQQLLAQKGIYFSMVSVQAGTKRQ
Experimental: as §1, §2, §3, §4, §4

BCRP = target: T1, BCRP (Homo sapiens, UniProt Q9UNQ0); test: Inhibition of pheophorbide A (Ph A) efflux in MDCKII-BCRP cell monolayers; settings: for mean efflux ratio of Ph A in the presence of inhibitor: dog, 180 min
T1 sequence (Q9UNQ0 1-655): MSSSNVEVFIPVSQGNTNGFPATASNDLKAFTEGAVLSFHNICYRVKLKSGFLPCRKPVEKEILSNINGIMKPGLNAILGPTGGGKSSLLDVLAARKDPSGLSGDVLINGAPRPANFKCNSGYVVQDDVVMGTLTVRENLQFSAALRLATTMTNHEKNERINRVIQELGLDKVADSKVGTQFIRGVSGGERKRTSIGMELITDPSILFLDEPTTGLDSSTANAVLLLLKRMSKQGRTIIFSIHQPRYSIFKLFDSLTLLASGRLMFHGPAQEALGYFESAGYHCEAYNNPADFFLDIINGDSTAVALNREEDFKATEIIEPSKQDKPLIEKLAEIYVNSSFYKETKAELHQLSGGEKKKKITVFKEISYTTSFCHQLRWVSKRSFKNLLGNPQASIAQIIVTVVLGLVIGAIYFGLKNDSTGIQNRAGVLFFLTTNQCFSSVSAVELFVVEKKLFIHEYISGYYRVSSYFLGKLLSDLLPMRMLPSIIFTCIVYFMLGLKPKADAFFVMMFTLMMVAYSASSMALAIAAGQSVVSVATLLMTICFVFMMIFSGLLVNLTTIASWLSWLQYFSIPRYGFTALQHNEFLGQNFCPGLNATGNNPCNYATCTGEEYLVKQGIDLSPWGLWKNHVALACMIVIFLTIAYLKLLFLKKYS
Experimental: as §1, §2, §3, §4, §4

Caco-2 cells = test: Glucuronidation of silybin in Caco-2 cells (LC-MS peak area of silybin glucuronides); format: in vitro ADME, human; settings: silybin 10 μM, test compound 20 μM co-incubation
Experimental: The analysis of silybin and total concentrations of glucuronides and sulfates was performed on an Agilent HP 1100 LC-MS system (Agilent, CA). A Waters ACQUITY UPLC® BEH C18 Column (1.7 μm, 2.1×50 mm, Waters Corp., Ireland) was used for detection with a C18 Security Guard cartridge (4×2.0 mm i.d., Phenomenex, Torrance, Calif.). Silybin A and silybin B were well separated using optimized gradient elution with methanol (mobile phase B) and 0.1% formic acid in water (mobile phase A) as mobile phase at a flow rate of 0.4 ml/min with a run time of 10 minutes. The gradient employed was as follows (time: mobile phase B percentage): 0 min: 25%, 6 minutes: 40%, 6.5 minutes: 25%.
MS parameters including: capillary voltage, −4000 V; nebulizer pressure, 40 pounds per square inch (psi); drying gas, 9 liters per minute (L/min); drying gas temperature, 325° C.; fragment voltage, 35 volts; dwell time, 200 milliseconds (ms); scan mode, selective ion monitoring (SIM) with [M-H]− for silybin (mass-to-charge ratio (m/z) 481), mono-glucuronide (m/z 657), and NG (m/z 271), respectively. LC-MS data were obtained by Agilent ChemStation Software.
Silybin is primarily metabolized to glucuronide (about 55%) and sulfate (about 28%) conjugates in human plasma after oral administration. To examine whether the co-incubation of flavonoids could affect the conjugation of silybin, the peak area of silybin glucuronides was measured by LC-MS (FIG. 6). Identification of glucuronides in the samples was based on their MS in-source fragmentations (m/z 657).

Chain of MRP2 (Q92887 whole entry): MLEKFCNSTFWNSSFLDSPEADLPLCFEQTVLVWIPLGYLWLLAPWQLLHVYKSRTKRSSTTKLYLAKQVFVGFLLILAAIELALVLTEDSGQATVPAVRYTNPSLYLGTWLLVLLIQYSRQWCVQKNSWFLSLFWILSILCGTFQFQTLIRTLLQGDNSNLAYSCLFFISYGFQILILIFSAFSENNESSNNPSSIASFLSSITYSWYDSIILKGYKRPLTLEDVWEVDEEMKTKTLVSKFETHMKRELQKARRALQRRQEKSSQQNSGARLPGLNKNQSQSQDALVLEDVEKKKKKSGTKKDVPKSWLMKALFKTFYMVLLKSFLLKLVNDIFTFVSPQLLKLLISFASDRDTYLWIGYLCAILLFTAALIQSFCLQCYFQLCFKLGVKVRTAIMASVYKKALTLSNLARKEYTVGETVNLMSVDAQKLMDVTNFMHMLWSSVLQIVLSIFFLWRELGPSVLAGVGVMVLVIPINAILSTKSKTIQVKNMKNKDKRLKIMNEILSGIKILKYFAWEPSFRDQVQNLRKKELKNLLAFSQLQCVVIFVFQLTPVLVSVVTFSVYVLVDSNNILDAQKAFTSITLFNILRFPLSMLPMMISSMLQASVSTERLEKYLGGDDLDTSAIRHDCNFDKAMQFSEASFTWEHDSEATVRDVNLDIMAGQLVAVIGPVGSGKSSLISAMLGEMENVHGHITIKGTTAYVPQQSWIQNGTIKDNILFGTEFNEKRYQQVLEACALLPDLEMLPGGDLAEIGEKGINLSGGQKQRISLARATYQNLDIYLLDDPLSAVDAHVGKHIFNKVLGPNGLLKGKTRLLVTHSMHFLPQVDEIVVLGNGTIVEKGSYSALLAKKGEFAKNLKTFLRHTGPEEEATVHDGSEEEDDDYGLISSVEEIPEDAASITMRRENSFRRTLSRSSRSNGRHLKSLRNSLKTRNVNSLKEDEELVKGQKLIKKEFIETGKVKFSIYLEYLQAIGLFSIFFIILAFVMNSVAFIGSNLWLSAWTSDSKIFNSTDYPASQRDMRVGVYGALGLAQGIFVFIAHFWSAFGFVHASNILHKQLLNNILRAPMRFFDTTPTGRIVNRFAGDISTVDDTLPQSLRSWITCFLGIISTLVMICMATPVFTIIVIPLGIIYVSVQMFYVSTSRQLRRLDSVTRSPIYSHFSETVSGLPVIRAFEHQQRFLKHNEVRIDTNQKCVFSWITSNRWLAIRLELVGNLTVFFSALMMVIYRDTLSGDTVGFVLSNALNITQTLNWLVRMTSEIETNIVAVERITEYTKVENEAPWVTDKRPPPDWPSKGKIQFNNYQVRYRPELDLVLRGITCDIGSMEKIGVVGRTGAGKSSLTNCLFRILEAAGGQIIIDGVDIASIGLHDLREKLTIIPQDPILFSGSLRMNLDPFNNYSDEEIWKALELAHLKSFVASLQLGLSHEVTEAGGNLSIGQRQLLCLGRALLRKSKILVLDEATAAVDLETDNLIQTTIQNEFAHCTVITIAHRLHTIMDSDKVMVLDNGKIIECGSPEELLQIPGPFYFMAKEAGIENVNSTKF

Row | SMILES | IC50 (MRP2) [µM] | efflux ratio of CDCFDA in the presence of inhibitor (MRP2) | IC50 (MDR1 (P-gp)) [µM] | IC50 (BCRP) [µM] | mean efflux ratio of Ph A in the presence of inhibitor (BCRP) | effect on glucuronide metabolites / glucuronide conjugation of silybin (Caco-2 cells)
1 | O=c1cc(-c2ccccc2)oc2cc(O)c(O)c(O)c12 [baicalein] | 21.2 | 1.46 | 20.6 | 22.1 | 1.48 | almost undetected
2 | COc1ccc(-c2cc(=O)c3c(OC)c(OC)c(OC)c(OC)c3o2)cc1 [tangeretin] | 8.84 | 1.54 | 6.88 | 8.88 | 1.18 | did not significantly inhibit the conjugation
